Laboratory results: patent publication US20260306639A1, “DEGRADER FOR DECOMPOSING CMET PROTEIN, AND PHARMACEUTICAL COMPOSITION COMPRISING SAME” (INNOCURE THERAPEUTICS, INC., priority 2022, published 2026)

What was measured:
MKN-45 = assay: cell viability / antiproliferative activity (WST-8), MKN-45 cells; format: cell-based; settings: Homo sapiens; MKN-45 gastric cancer cells; 72 hours
Description: (§2) c-MET overexpressing human gastric cancer cell lines [MKN45] and [SNU638] were cultured in RPMI medium with 10% fetal bovine serum, penicillin (100 U/ml), and streptomycin (100 mg/ml), and c-MET exon 14 skipping mutant human gastric cancer cell lines [Hs746T] were cultured in DMEM media. The c-MET overexpressing human lung cancer cell line EBC-1 was cultured in MEM media with the addition of 10% fetal bovine serum, penicillin (100 U/ml), and streptomycin (100 mg/ml). […] The compound synthesized in accordance with the present invention was prepared with a raw material solution of 10 mM dissolved in DMSO (dimethyl sulfoxide), and was sequentially diluted and processed.
(§3) In order to observe the inhibitory activity on cell growth, cells were dispensed in a 96-well plate at a concentration of 5,000 cells/well, and then treated with the compound prepared at various concentrations for 72 hours. The viability of the cells was calculated using GraphicPad Prism 8.0 software by adding 10 ml per well of WST-8 (water soluble tetrazolium salt) sample, which reacts with dehydrogenase present in the electron transport system of mitochondria to produce formazon, incubated for 2 hours, and measured absorbance at 450 nm.

c-MET [1] = assay: c-MET protein degradation (Simple Western), MKN-45 cells; format: cell-based, human; settings: MKN-45 gastric cancer cells, c-MET overexpressing; 24 hours
In short: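 Cells at 2×10^5 cells/well exposed to compound for 24 h (gastric lines) or 48 h (lung lines). Lysates (3 μg protein) probed for c-MET by capillary Simple Western, normalized to GAPDH and expressed as % of 0.1% DMSO control. DC50 is the concentration giving 50% protein reduction.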

SNU-638 = assay: cell viability / antiproliferative activity (WST-8), SNU-638 cells; format: cell-based, human; settings: SNU-638 gastric cancer cells, 72 hours
Description: as §2, §3

c-MET [2] = assay: c-MET protein degradation (Simple Western), EBC-1 cells; format: cell-based, human; settings: EBC-1 lung cancer cells, c-MET overexpressing; 48 hours
Description: (§1) In order to assess the resolution of the compound of the present invention for c-MET expressed in cells, cells were dispensed in a 12-well plate at a concentration of 2×10^5 cells/well, and then gastric cancer cell lines were treated with samples for 24 hours and lung cancer cell lines were treated for 48 hours. Cell lysates were collected using a scraper on ice, centrifuged at 4° C. 15,000 rpm for 30 min to obtain a protein-containing supernatant. Protein expression was then measured using the Simple Western Automated Western Blot System Abby instrument using 3 μg of protein for each sample. SDS and heat-induced denaturation proteins were separated by molecular weight, attached to capillary, reacted with anti-c-MET or anti-GAPDH antibodies, which are primary antibodies, and then reacted with HRP-conjugated secondary antibodies, and analyzed the protein expression signal with compass software. Protein expression was normalized based on the expression value of GAPDH, and protein development in each sample was measured as a percentage (%) based on 100% of samples treated with 0.1% DMSO carriers, and DC50 (concentration of a compound where 50% protein inhibition is achieved) was calculated from the change in protein expression amount due to compound treatment.

EBC-1 = assay: cell viability / antiproliferative activity (WST-8), EBC-1 cells; format: cell-based, human; settings: EBC-1 lung cancer cells, 72 hours
Description: as §2, §3

c-MET [3] = assay: c-MET protein degradation (Simple Western), SNU-638 cells; format: cell-based, human; settings: SNU-638 gastric cancer cells, c-MET overexpressing; 24 hours
Description: as §1

c-MET [4] = assay: c-MET protein degradation (Simple Western), Hs746T cells; format: cell-based, human; settings: Hs746T gastric cancer cells, c-MET exon 14 skipping mutant; 24 hours
Description: as §1

IC50 (MKN-45) [nM] | DC50 (c-MET [1]) [nM] | DC50 (c-MET [2]) [nM] | DC50 (c-MET [3]) [nM] | IC50 (SNU-638; Homo sapiens) [nM] | Molecule | further results
< 100 | 100 to 1000 | – | – | – | Cn1cc(-c2cnc3c(nnn3CC3CN(c4ncc(-c5ccc(CN6CCC(CN7CCN(c8ccc9c(=O)n(C%10CCC(=O)NC%10=O)ncc9c8)CC7)CC6)cc5)cn4)CCO3)n2)cn1 [ICT-0000978, 3-(6-(4-((1-(4-(2-((S)-2-((5-(1-methyl-1H-pyrazole-4-yl)-1H-[1,2,3]triazolo[4,5-b]pyrazine-1-yl)methyl)morpholino)pyrimidine-5-il)benzyl)piperidine-4-il)methyl)piperazine-1-yl)1-oxopthalazine-2(1H)-yl)piperidine-2,6-dione] | –
100 to 1000 | < 100 | – | – | – | Cc1nn(C2CCC(=O)NC2=O)c(=O)c2ccc(NCCOCCOCCOCC(=O)N3CCC(COc4cnc(-c5cccc(Cn6nc(-c7cccc(C#N)c7)ccc6=O)c5)nc4)CC3)cc12 (centres unmarked) [ICT-0001088] | –
– | – | < 100 | < 100 | – | 3-((3-fluoro-4-(4-(2-(4-(4-(4-(2-(2-((S)-2-((5-(1-methyl-1H-pyrazole-4-yl)-1H-[1,2,3]triazolo[4,5-b]pyrazine-1-yl)methyl)morpholino)pyrimidine-5-yl)benzyl)piperazine-1-il)acetyl)piperazine-1-il)phenyl)amino)piperidine-2,6-dione [ICT-0001379] | IC50 (SNU-638): < 100 nM; IC50 (EBC-1): < 100 nM
– | – | < 100 | < 100 | < 100 | N#Cc1cccc(-c2ccc(=O)n(Cc3cccc(-c4ncc(OCC5CCN(CC(=O)N6CCN(c7ccc(NC8CCC(=O)NC8=O)c(F)c7)CC6)CC5)cn4)c3)n2)c1 (centres unmarked) [ICT-0001437, 3-(1-(3-(5-((1-(1-(2-(4-((2,6-dioxopiperidine-3-yl)amino)-3-fluorophenyl)piperazine-1-yl)-2-oxoethyl)piperidine-4-yl)methoxy)pyrimidine-2-yl)benzyl)6-oxo-1,6-dihydropyridazine-3-yl)benzonitrile] | IC50 (EBC-1; Homo sapiens): < 100 nM
– | – | – | – | < 100 | Cc1nn(C2CCC(=O)NC2=O)c(=O)c2ccc(N3CCN(C4CCN(CCN5CCC(COc6cnc(-c7cccc(Cn8nc(-c9cccc(C#N)c9)ccc8=O)c7)nc6)CC5)CC4)CC3)cc12 (centres unmarked) [ICT-0001317] | –
– | < 100 | < 100 | < 100 | – | Cc1nn(C2CCC(=O)NC2=O)c(=O)c2ccc(N3CCN(c4ccc(NC(=O)CN5CCC(COc6cnc(-c7cccc(Cn8nc(-c9cccc(C#N)c9)ccc8=O)c7)nc6)CC5)cc4)CC3)cc12 (centres unmarked) [ICT-0001207] | DC50 (c-MET [4]): < 100 nM
– | < 100 | < 100 | < 100 | – | Cc1nn(C2CCC(=O)NC2=O)c(=O)c2ccc(N3CCN(CCN4CCC(COc5cnc(-c6cccc(Cn7nc(-c8cccc(C#N)c8)ccc7=O)c6)nc5)CC4)CC3)cc12 (centres unmarked) [ICT-0001277, 3-(1-{[3-(5-{[1-(2-{4-[2-(2,6-dioxopiperidin-3-yl)-4-methyl-1-oxo-1,2-dihydrophthalazine-6-yl]piperazine-1-yl}ethyl)piperidine-4-il]methoxy}pyrimidine-2-yl)phenyl]methyl}6-oxo-1,6-dihydropyridazine-3-yl)benzonitrile] | DC50 (c-MET [4]): < 100 nM
– | – | – | – | < 100 | N#Cc1cccc(-c2ccc(=O)n(Cc3cccc(-c4ncc(OCC5CCN(CCCCCc6ccc7c(=O)n(C8CCC(=O)NC8=O)ncc7c6)CC5)cn4)c3)n2)c1 (centres unmarked) [ICT-0001304] | –
– | – | < 100 | < 100 | – | N#Cc1cccc(-c2ccc(=O)n(Cc3cccc(-c4ncc(N5CCN(CC6CCN(c7ccc(NC8CCC(=O)NC8=O)cc7F)CC6)CC5)cn4)c3)n2)c1 (centres unmarked) [ICT-0001402] | DC50 (c-MET [4]): < 100 nM
< 100 | 100 to 1000 | – | – | – | N#Cc1cccc(C2=NC(Cc3cccc(-c4ncc(OCC5CCN(CC(=O)N6CCN(CC7CCN(c8ccc9c(=O)n(C%10C=CC(=O)NC%10=O)ncc9c8)CC7)CC6)CC5)cn4)c3)C(=O)C=C2)c1 (centres unmarked) [ICT-0000975] | –
100 to 1000 | 100 to 1000 | – | – | – | Cn1cc(-c2cnc3c(nnn3C[C@@H]3CN(c4ncc(-c5ccc(CN6CCN(C(=O)COCCOCCNc7ccc8c(=O)n(C9CCC(=O)NC9=O)ncc8c7)CC6)cc5)cn4)CCO3)n2)cn1 (some centres unmarked) [ICT-0000935] | –
– | – | – | – | < 100 | Cc1nn(C2CCC(=O)NC2=O)c(=O)c2cc(N3CCN(CC4CCN(CCN5CCC(COc6cnc(-c7cccc(Cn8nc(-c9cccc(C#N)c9)ccc8=O)c7)nc6)CC5)CC4)CC3)ccc12 (centres unmarked) [ICT-0001321] | –
– | – | – | – | < 100 | Cc1nn(C2CCC(=O)NC2=O)c(=O)c2cc(F)c(N3CCN(CC4CCN(CCN5CCC(COc6cnc(-c7cccc(Cn8nc(-c9cccc(C#N)c9)ccc8=O)c7)nc6)CC5)CC4)CC3)cc12 (centres unmarked) [ICT-0001318] | –
< 100 | < 100 | – | – | – | Cc1nn(C2CCC(=O)NC2=O)c(=O)c2cc(N3CCN(CCCC(=O)N4CCC(COc5cnc(-c6cccc(Cn7nc(-c8cccc(C#N)c8)ccc7=O)c6)nc5)CC4)CC3)ccc12 (centres unmarked) [ICT-0001216, 3-(1-(3-(5-((1-(4-(4-(3-(2,6-dioxopiperidin-3-yl)-1-methyl-4-oxo-3,4-dihydroptalazine-6-yl)piperazine-1-il)butanoyl)piperidine-4-il)methoxy)pyrimidine-2-yl)benzyl)6-oxo-1,6-dihydropyridazine-3-yl)benzonitrile] | –
< 100 | < 100 | < 100 | < 100 | < 100 | Cc1nn(C2CCC(=O)NC2=O)c(=O)c2cc(N3CCN(CCC(=O)N4CCC(COc5cnc(-c6cccc(Cn7nc(-c8cccc(C#N)c8)ccc7=O)c6)nc5)CC4)CC3)ccc12 (centres unmarked) [ICT-0001215] | IC50 (EBC-1; Homo sapiens): < 100 nM
– | – | < 100 | > 1000 | 100 to 1000 | N#Cc1cccc(-c2ccc(=O)n(Cc3cccc(-c4ncc(OCC5CCN(Cc6cn(C7CCC(=O)NC7=O)nn6)CC5)cn4)c3)n2)c1 (centres unmarked) [ICT-0001384, 3-{1-[(3-{5-[(1-{[1-(2,6-dioxopiperidine-3-yl)-1H-1,2,3-triazole-4-yl]methyl}piperidine-4-il)methoxy]pyrimidine-2-yl}phenyl)methyl]-6-oxo-1,6-dihydropyridazine-3-yl}benzonitrile] | IC50 (EBC-1; Homo sapiens): < 100 nM
100 to 1000 | 100 to 1000 | – | – | – | Cc1nn(C2CCC(=O)NC2=O)c(=O)c2ccc(NCCOCCOCCOCCOCC(=O)N3CCC(COc4cnc(-c5cccc(Cn6nc(-c7cccc(C#N)c7)ccc6=O)c5)nc4)CC3)cc12 (centres unmarked) [ICT-0001089, 3-(1-(3-(5-((1-(14-((2-(2,6-dioxopiperidine-3-yl)-4-methyl-1-oxo-1,2-dihydrophthalazine-6-yl)amino)3,6,9,12-tetratetradecanoyl)piperidine-4-yl)methoxy)pyrimidin-2-yl)benzyl)6-oxo-1,6-dihydropyridazine-3-yl)benzonitrile] | –
– | – | – | – | < 100 | N#Cc1cccc(-c2ccc(=O)n(Cc3cccc(-c4ncc(OCC5CCN(CCOCCOCCOCC#Cc6cccc7c(=O)n(C8CCC(=O)NC8=O)ncc67)CC5)cn4)c3)n2)c1 (centres unmarked) [ICT-0001307] | –

Molecule | IC50 (MKN-45) [nM] | DC50 (c-MET [1]) [nM] | DC50 (c-MET [2]) [nM] | DC50 (c-MET [3]) [nM] | IC50 (SNU-638; Homo sapiens) [nM] | further results
Cc1nn(C2CCC(=O)NC2=O)c(=O)c2ccc(N3CCN(CC4CCN(CC(=O)N5CCC(COc6cnc(-c7cccc(Cn8nc(-c9cccc(C#N)c9)ccc8=O)c7)nc6)CC5)CC4)CC3)cc12 (centres unmarked) [ICT-0001272] | < 100 | < 100 | – | – | – | –
Cc1nn(C2CCC(=O)NC2=O)c(=O)c2cc(N3CCN(C(=O)CN4CCC(COc5cnc(-c6cccc(Cn7nc(-c8cccc(C#N)c8)ccc7=O)c6)nc5)CC4)CC3)ccc12 (centres unmarked) [ICT-0001214, 3-(1-(3-(5-((1-(2-(4-(3-(2,6-dioxopiperidin-3-yl)-1-methyl-4-oxo-3,4-dihydropetalazine-6-yl)piperazine-1-il)acetyl)piperidine-4-il)methoxy)pyrimidine-2-yl)benzyl)6-oxo-1,6-dihydropyridazine-3-yl)benzonitrile] | < 100 | < 100 | – | – | – | –
